The test addresses T1, histamine H4 receptor (Homo sapiens, UniProt Q9H3N8).
T1 construct: expressed in transfected cells; host or cells: HEK293SFM cells (membrane preparation)
As to the kind of experiment: Inhibition of histamine H4 receptor (Table A1; H4 membrane binding assay). Particulars: for IC50: histamine H4 receptor, "> a" = exceeds experiment limit. The protocol:
Recombinant HEK293SFM cells expressing human H1, H2, H3, H4 or mouse H4 were harvested (Packard Filtermate Harvester) in ice-cold Tris-HCl, (50 mM, pH 7.5, Sigma) with protease inhibitors (Roche) and homogenized with a Polytron homogenizer. The homogenate was centrifuged for 5 minutes at 1000 g to remove nuclei and unbroken cells. The supernatant was centrifuged at 50000 g for 30 minutes, and the resulting pellet was re-suspended in ice-cold Tris-HCl (50 mM, pH 7.5). […] Nonspecific binding was determined by inclusion of 1000× unlabeled ligands. The bound radioactivity was separated by filtration through polyethyleneimine-treated GF/B filters (Perkin Elmer). The filters were washed eight times with ice-cold Tris-HCl (50 mM, pH 7.5), and radioactivity retained on the filters was measured by liquid scintillation counting. The binding data were evaluated with Prism. […]

By IC50 is commonly meant the concentration at which inhibition is half-maximal. Read a high IC50 as weaker potency. For orientation: inhibition means the change of the read-out against control, counted positive when it falls. A higher inhibition goes with strong suppression.

T1 sequence (Q9H3N8 whole entry): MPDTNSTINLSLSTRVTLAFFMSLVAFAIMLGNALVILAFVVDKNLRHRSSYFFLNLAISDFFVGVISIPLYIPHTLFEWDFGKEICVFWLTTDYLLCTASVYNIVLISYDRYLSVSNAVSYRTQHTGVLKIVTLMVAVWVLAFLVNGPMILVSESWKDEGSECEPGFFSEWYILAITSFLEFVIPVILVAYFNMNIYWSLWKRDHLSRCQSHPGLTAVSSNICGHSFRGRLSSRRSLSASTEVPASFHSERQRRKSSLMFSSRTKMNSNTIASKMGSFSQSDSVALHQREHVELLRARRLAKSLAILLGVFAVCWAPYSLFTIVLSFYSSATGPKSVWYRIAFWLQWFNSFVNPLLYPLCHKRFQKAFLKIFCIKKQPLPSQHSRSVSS

`CNC(=O)c1ccc(-c2ccc3c(c2)CN(c2cc(N4CCN(C)CC4)nc(N)n2)C(C)C3)cn1` (single isomer, unassigned) [Example 49A] came in with an IC50 of 45 nM.

On to `CNC(=O)c1ccc(-c2ccc3c(c2)CN(c2cc(N4CCN(C)CC4)nc(N)n2)C(C)C3)cn1` (single isomer, unassigned) [Example 49B, 5-{2-[2-amino-6-(4-methylpiperazin-1-yl)pyrimidin-4-yl]-3-methyl-1,2,3,4-tetrahydroisoquinolin-7-yl}-N-methylpyridine-2-carboxamide], for which the IC50 came out at 38 nM.

Regarding `CC1Cc2ccc(-c3ccc(C(=O)N(C)C)nc3)cc2CN1c1cc(N2CCN(C)CC2)nc(N)n1` (single isomer, unassigned) [Example 50 B, 5-(2-(2-amino-6-(4-methylpiperazin-1-yl)pyrimidin-4-yl)-3-methyl-1,2,3,4-tetrahydroisoquinolin-7-yl)-N,N-dimetitylpicolinamide], at 1 µM the inhibition was 78%.

Consider `CC1Cc2ccc(-c3ccc(C(=O)N(C)C)nc3)cc2CN1c1cc(N2CCN(C)CC2)nc(N)n1` (single isomer, unassigned) [Example 50A, 5-(2-(2-amino-6-(4-methylpiperazin-1-yl)pyrimidin-4-yl)-3-methyl-1,2,3,4-tetrahydroisoquinolin-7-yl)-N,N-dimethylpicolinamide], for which the IC50 was determined as 88.7 nM.

In turn, `CC1Cc2ccc(-c3ccc(C(=O)N[C@H](C)CO)nc3)cc2CN1c1cc(N2CCN(C)CC2)nc(N)n1` (single isomer, unassigned) [Example 51A] returned an IC50 of 75 nM. The IC50 values of the last two compounds are within 1.5-fold of each other.

As for `CC1Cc2ccc(-c3ccc(C(=O)N[C@H](C)CO)nc3)cc2CN1c1cc(N2CCN(C)CC2)nc(N)n1` (single isomer, unassigned) [Example 51B], the IC50 turned out to be 63 nM.

For the compound `CC1Cc2ccc(-c3ccc(C(=O)N(C)CCN(C)C)nc3)cc2CN1c1cc(N2CCN(C)CC2)nc(N)n1` (single isomer, unassigned) [Example 52A, 5-{2-[2-amino-6-(4-methylpiperazin-1-yl)pyrimidin-4-yl]-3-methyl-1,2,3,4-tetrahydroisoquinolin-7-yl}-N-[2-(dimethylamino)ethyl]-N-methylpyridine-2-carboxoynide], the IC50 turned out to be 46 nM.

As for `CC1Cc2ccc(-c3ccc(C(=O)N4CCC4)nc3)cc2CN1c1cc(N2CCN(C)CC2)nc(N)n1` (single isomer, unassigned) [Example 53A, 4-[7-[6-(azetidin-1-ylcarbonyl)pyridin-3-yl]-3-methyl-3,4-dihydroLsoquinolin-2(1H)-yl]-6-(4-methylpiperazin-1-yl)pyrimidin-2-amine], the IC50 came out at 201 nM. This IC50 lies about 4.4-fold higher than the previous one.

In turn, `CC1Cc2ccc(-c3ccc(C(=O)N4CCC4)nc3)cc2CN1c1cc(N2CCN(C)CC2)nc(N)n1` (single isomer, unassigned) [Example 53B, 4-[7-[6-(azetidin-1-ylcarbonyl)pyridin-3-yl]-3-methyl-3,4-dihydroisoquinolin-2(1H)-yl]-6-(4-methylpiperazin-1-yl)pyrimidin-2-amine] registered an IC50 of 176 nM.

The compound `CC1Cc2ccc(-c3ccc(C(=O)N4CC(C#N)C4)nc3)cc2CN1c1cc(N2CCN(C)CC2)nc(N)n1` (single isomer, unassigned) [Example 54A, 1-[(5-{2-[2-amino-6-(4-methylpiperazin-1-yl)pyrimidin-4-yl]-3-methyl-1,2,3,4-tetrahydroisoquinolin-7-yl}pyridin-2-yl)carbonyl]azetidine-3-carbonitrile] registered an IC50 of 99 nM.

Take `CC1Cc2ccc(-c3ccc(C(=O)N4CC(C#N)C4)nc3)cc2CN1c1cc(N2CCN(C)CC2)nc(N)n1` (single isomer, unassigned) [Example 54B, 1-[(5-{2-[2-amino-6-(4-methylpiperazin-1-yl)pyrimidin-4-yl]-3-methyl-1,2,3,4-tetrahydroisoquinolin-7-yl}pyridin-2-yl)carbonyl]azetidine-3-carbonitrile]: the IC50 was found to be 48 nM.

As to `CC1Cc2ccc(-c3ccc(C(=O)N4CCCC4)nc3)cc2CN1c1cc(N2CCN(C)CC2)nc(N)n1` (single isomer, unassigned) [Example 55A], the IC50 is 95 nM.

The compound `CC1Cc2ccc(-c3ccc(C(=O)N4CCCC4)nc3)cc2CN1c1cc(N2CCN(C)CC2)nc(N)n1` (single isomer, unassigned) [Example 55B, 4-(4-methylpiperazin-1-yl)-6-[3-methyl-7-[6-(pyrrolidin-1-ylcarbonyl)pyridin-3-yl]-3,4-dihydroisoquinolin-2(1H)-yl]pyrimidin-2-amine] showed an inhibition at 1 µM of 65%.

For `CC1Cc2ccc(-c3ccc(C(=O)N4CC[C@@H](O)C4)nc3)cc2CN1c1cc(N2CCN(C)CC2)nc(N)n1` (single isomer, unassigned) [Example 56A], the IC50 is 85 nM.

With `CC1Cc2ccc(-c3ccc(C(=O)N4CC[C@@H](O)C4)nc3)cc2CN1c1cc(N2CCN(C)CC2)nc(N)n1` (single isomer, unassigned) [Example 56B], the IC50 is 172 nM.

In turn, `CC1Cc2ccc(-c3ccc(C(=O)N4CC(O)C4)nc3)cc2CN1c1cc(N2CCN(C)CC2)nc(N)n1` (single isomer, unassigned) [Example 60, 1-[(5-{2-[2-Amino-6-(4-methylpiperazin-1-yl)pyrimidin-4-yl]-3-methyl-1,2,3,4-tetrahydroisoquinolin-7-yl}pyridin-2-yl)carbonyl]azetidin-3-ol] showed an IC50 of 130 nM.

`CC1Cc2ccc(-c3ccnc(C(=O)N(C)C)c3)cc2CN1c1cc(N2CCN(C)CC2)nc(N)n1` (single isomer, unassigned) [Example 61A, 4-{2-[2-amino-6-(4-methylpiperazin-1-yl)pyrimidin-4-yl]-3-methyl-1,2,3,4-tetrahydroisoquinolin-7-yl}-N,N-dimethylpyridine-2-carboxamide] gave an IC50 of 110 nM. The IC50 values of the last two compounds are within 1.5-fold of each other.

As to `CC1Cc2ccc(-c3ccnc(C(=O)N(C)C)c3)cc2CN1c1cc(N2CCN(C)CC2)nc(N)n1` (single isomer, unassigned) [Example 61B, 4-{2-[2-amino-6-(4-methylpiperazin-1-yl)pyrimidin-4-yl]-3-methyl-1,2,3,4-tetrahydroisoquinolin-7-yl}-N,N-dimethylpyridine-2-carboxamide], the IC50 came out at 64 nM.

`CC1Cc2ccc(-c3ccnc(C(=O)N4CCC4)c3)cc2CN1c1cc(N2CCN(C)CC2)nc(N)n1` (single isomer, unassigned) [Example 62A, 4-[7-[2-(azetidin-1-ylcarbonyl)pyridin-4-yl]-3-methyl-3,4-dihydroisoquinolin-2 (1H)-yl]-6-(4-methylpiperazin-1-yl)pyrimidin-2-amine] registered an IC50 of 46 nM.

In the case of `CC1Cc2ccc(-c3ccnc(C(=O)N4CCC4)c3)cc2CN1c1cc(N2CCN(C)CC2)nc(N)n1` (single isomer, unassigned) [Example 62B, 4-[7-[2-(azetidin-1-ylcarbonyl)pyridin-4-yl]-3-methyl-3,4-dihydroisoquinolin-2(1H)-yl]-6-(4-methylpiperazin-1-yl)pyrimidin-2-amine], the IC50 amounted to 49 nM.

`CC1Cc2ccc(-c3ccnc(C(=O)N4CC(C#N)C4)c3)cc2CN1c1cc(N2CCN(C)CC2)nc(N)n1` (single isomer, unassigned) [Example 63A, 1-[(4-{2-[2-amino-6-(4-methylpiperazin-1-yl)pyrimidin-4-yl]-3-methyl-1,2,3,4-tetrahydroisoquinolin-7-yl}pyridin-2-yl)carbonyl]azetidine-3-carbonitrile] had an IC50 of 44 nM.

In turn, `CC1Cc2ccc(-c3ccnc(C(=O)N4CC(C#N)C4)c3)cc2CN1c1cc(N2CCN(C)CC2)nc(N)n1` (single isomer, unassigned) [Example 63B, 1-[(4-{2-[2-amino-6-(4-methylpiperazin-1-yl)pyrimidin-4-yl]-3-methyl-1,2,3,4-tetrahydroisoquinolin-7-yl}pyridin-2-yl)carbonyl]azetidine-3-carbonitrile] displayed an IC50 of 47 nM.

Consider `CC1Cc2ccc(-c3ccnc(C(=O)N4CCCC4)c3)cc2CN1c1cc(N2CCN(C)CC2)nc(N)n1` (single isomer, unassigned) [Example 64A, 4-(4-methylpiperazin-1-yl)-6-[3-methyl-7-[2-(pyrrolidin-1-ylcarbonyl)pyridin-4-yl]-3,4-dihydroisoquinolin-2(1H)-yl]pyrimidin-2-amine], for which the half-inhibitory concentration (IC50) was 116 nM.

For the compound `CC1Cc2ccc(-c3ccnc(C(=O)N4CCCC4)c3)cc2CN1c1cc(N2CCN(C)CC2)nc(N)n1` (single isomer, unassigned) [Example 64B, 4-(4-methylpiperazin-1-yl)-6-[3-methyl-7-[2-(pyrrolidin-1-ylcarbonyl)pyridin-4-yl]-3,4-dihydroisoquinolin-2(1H)-yl]pyrimidin-2-amine], the IC50 was found to be 86 nM. The IC50 values of the last two compounds are within 1.5-fold of each other.

`CC1Cc2ccc(-c3ccnc(C(=O)N4CC[C@H](O)C4)c3)cc2CN1c1cc(N2CCN(C)CC2)nc(N)n1` (single isomer, unassigned) [Example 65A] registered an IC50 of 107 nM.

For `CC1Cc2ccc(-c3ccnc(C(=O)N4CC[C@H](O)C4)c3)cc2CN1c1cc(N2CCN(C)CC2)nc(N)n1` (single isomer, unassigned) [Example 65B], the IC50 was found to be 79 nM. The IC50 values of the last two compounds are within 1.5-fold of each other.

`CC1Cc2ccc(-c3ccnc(C(=O)N4CC[C@H](F)C4)c3)cc2CN1c1cc(N2CCN(C)CC2)nc(N)n1` (single isomer, unassigned) [Example 66A] had an IC50 of 64 nM.

Turning to `CC1Cc2ccc(-c3ccnc(C(=O)N4CC[C@H](F)C4)c3)cc2CN1c1cc(N2CCN(C)CC2)nc(N)n1` (single isomer, unassigned) [Example 66B], the IC50 amounted to 57 nM.

The values above are taken from patent US20130244999A1, “Substituted Heterocyclic Compounds” (Incyte Corporation, priority 2008, published 2013).
